Publication PMC8763920, “Unprotected peptide macrocyclization and stapling via a fluorine-thiol displacement reaction” (Nature Communications, 2022)
*1 amine or outer side, *2 acyl side, *3 side chain or, on linkers, in order; H or OH if unused. Where a SMILES comes first, the peptide text is derived from it. Bridges are numbered along the chain shown (N, C = ends). [ ]: non-standard residue; d: D form. The star is where a group is joined. Benzene(1,3-(CH2SCH2CO)2) = O=C(CSCc1cccc(CSCC(=O)[*:2])c1)[*:1]; FITC = O=C1OC2(c3ccc(O)cc3Oc3cc(O)ccc32)c2ccc(NC(=S)*)cc21; Dap = NC[C@H](N)C(=O)O; βAla = NCCC(=O)O

Columns and labels:
[1] = test system: β-catenin mediated transcription; test: TOPFlash luciferase reporter assay; format: cell-based; conditions: DLD-1 cells, 15 μM peptide, 24 h
Description: For evaluation of Axin peptide analogues, DLD-1 cells were cultured in 96-well flat bottom plates up to 70–80% confluency and were transfected with 200 ng M50 TOPFlash plasmid (a gift from Professor Raymond Habas, Temple Biology) and 50 ng pRL-TK plasmid (Promega). 12 h after transfection, cells were treated with DMSO vehicle or 15 μM of Axin peptide analogues for another 24 h. Luciferase activity was measured using the Dual-Glo luciferase assay kit (Promega) on a Biotek Synergy H1 plate reader using the Gen5 software. Data were processed as firefly: Renilla luciferase ratio for each control or treatment group, and were further normalized against the vehicle control group (100%) as the Relative Activities.

DLD-1 cells [2] = test: Time-dependent cytotoxicity/growth inhibition of Axin peptide analogues; format: cell-based; conditions: 0, 5, 10, 15 µM; after 48 h of incubation; CellTiter Glo
Description: (§1) For growth inhibition by Axin peptides, DLD-1 cells were cultured and maintained as mentioned before. Right before the assay, cells were resuspended in fresh RPMI media supplemented with 10% FBS, 100 IU/mL penicillin, and 100 µg/mL streptomycin, and plated onto 96-well white flat-bottom plates at 1000 cells per well (90 µL media/well). After overnight incubation, peptide samples were serially diluted as 10× stock in PBS buffer (10% DMSO), and were added to the plated cells at 10 µL stock solution/well in triplicate to make final treatment concentrations of 0, 0.0625, 0.125, 0.25, 0.5, 1, 2, 4, 8, 16 µM. […] The samples on the plates were incubated at 37 °C, 5% CO2 for 5 days, and the cell viability was evaluated by CellTiter Glo (Promega). The luminescence signals were recorded by the H1 synergy plate reader (Biotek) using the Gen5 software, and were normalized against the control groups (100%) for which cells were only treated with the vehicle (PBS/1% DMSO). Control HEK293 cells were cultured in DMEM media supplemented with 10% FBS, 1% penicillin/streptomycin at 37 °C, 5% CO2, then incubated with peptide samples and measured for viability in the same manner as mentioned above. […] After 24 h of incubation, the cell viabilities were measured and normalized against the vehicle control groups the same as mentioned above.

DLD-1 cells [3] = test: Cell viability assay for imaging studies, Axin analogues; format: cell-based; conditions: 10 µM, 12 h incubation, CellTiter-Glo
Description: For Jurkat cells, after imaging studies with SAHBA analogues (5 µM, 4 h of incubation), viabilities were measured by mixing with the CellTiter-Glo reagent and the chemiluminescence signals were recorded and processed the same as metioned above. Similarly, confocal imaging of DLD-1 cells for the penetration pathway studies were followed by viability measurements. Cells treated with vehicle groups were also analysed and counted as the 100% control.

HEK293 cells = test: 5-day growth of HEK293 control cells; format: cell-based; conditions: 5 days, CellTiter Glo, up to 16 µM
Description: as §1

DLD-1 cells [4] = test: 5-day growth inhibition of DLD-1 cancer cells; format: cell-based; conditions: CellTiter Glo
Description: For growth inhibition by Axin peptides, DLD-1 cells were cultured and maintained as mentioned before. Right before the assay, cells were resuspended in fresh RPMI media supplemented with 10% FBS, 100 IU/mL penicillin, and 100 µg/mL streptomycin, and plated onto 96-well white flat-bottom plates at 1000 cells per well (90 µL media/well). After overnight incubation, peptide samples were serially diluted as 10× stock in PBS buffer (10% DMSO), and were added to the plated cells at 10 µL stock solution/well in triplicate to make final treatment concentrations of 0, 0.0625, 0.125, 0.25, 0.5, 1, 2, 4, 8, 16 µM. The wells on the edges of plates were filled with PBS buffer to avoid unwanted evaporation of samples. The samples on the plates were incubated at 37 °C, 5% CO2 for 5 days, and the cell viability was evaluated by CellTiter Glo (Promega). The luminescence signals were recorded by the H1 synergy plate reader (Biotek) using the Gen5 software, and were normalized against the control groups (100%) for which cells were only treated with the vehicle (PBS/1% DMSO). Control HEK293 cells were cultured in DMEM media supplemented with 10% FBS, 1% penicillin/streptomycin at 37 °C, 5% CO2, then incubated with peptide samples and measured for viability in the same manner as mentioned above. For Axin peptide analogues’ time-dependent cytotoxicity, peptide analogues were mixed with cells (1000 cells per well) at a final concentration of 0, 5, 10, and 15 µM. The cell viabilities were meaured via CellTiter Glo after incubation of 1 day, 2 days, and 4 days, respectively. […] After 24 h of incubation, the cell viabilities were measured and normalized against the vehicle control groups the same as mentioned above.

HeLa cells = test: Cell penetration of STAD peptides, confocal imaging; format: cell-based; conditions: 5 µM peptide, 2 h, confocal microscopy, 78 normalized as 1, mean ± SEM
Description: Hoechst 33342 dye and FITC-labelled peptides were excited with 405 and 488 nm lasers (Coherent OBIS), respectively. Images were analysed with NIH ImageJ software. Using the “analyse particles” function, we measured the area and intensity of individual cells (Supplementary Fig. 34a)[87]. […] However, from the distribution of data we found the best fit curve to be lognormal. Outliers were then removed using a Grubbs test (Supplementary Fig. 35b)[88]. We determined the optimal bin size for the histogram using the Freedman–Draconis rule[89]. The mean fluorescence intensity from each treatment group was calculated from n ≥ 100 cells. Error bars represented SE. P values were calculated by two sided Welch’s t test for comparison with internalization of RCM-stapled control peptides.
For FITC-labelled SAHBA analogues, 5 μM of each was incubated with Jurkat cells for 4 h[13]. The rest of the imaging procedures were done the same as mentioned above. Likewise, 5 µM of STAD peptides were incubated with HeLa cells for 2 h[71], followed by similar imaging studies; and 2 µM of p53 peptide analouges were mixed with HCT116 wt cells for 4 h before the imaging analysis of their cellular uptake. Cell samples treated with STAD or p53 series of peptide analogues were also simulatenously stained by propidium iodide (PI) to ensure the cell viability and membrane integrity.

[5] = test system: p53 wild-type HCT-116 cells; format: cell-based; conditions: human
circular dichroism = conditions: water; pH ns; 25 °C; 70 uM
[6] = Circular dichroism, % alpha helicity; format: physicochemical; conditions: CD, 70 µM peptide, 25 °C, from MRE at 222 nm, three scans averaged; Axin and p53 peptides in water, HIV-targeting peptides in 25% acetonitrile/water
Description: The final concentration of the peptide samples was 70 µM. Circular dichroism (CD) measurements were performed on a Jasco model J-815 spectropolarimeter with a 1 mm Jasco quartz cell over the wavelength range of 180–250 nm. The scans were carried out at 0.2 nm resolution with 4 s average time at 25 °C. Data from three scans were averaged, base line corrected, and normalized to the mean residue ellipticity (MRE) following the equation: [θ]λ = [θ]obs/(10 × l × C × n). [θ]λ is MRE in deg × cm^2 × dmol^−1; [θ]obs is the measured ellipticity; C is the concentration of peptides in M; l is the optical pathlength in cm; and n is the number of residues in peptides. The % alpha helicity was calculated from the MRE values at 222 nm, using the equation % helicity = ([θ]222−[θ]0)/([θ]max−[θ]0) based on the previously reported method. [θ]222 is the MRE value at 222 nm; [θ]max is the maximum theoretical MRE value for a helix of n residues; and [θ]0 is the MRE value of the peptide in random coil conformation that usually equals to (2220-53T)[86].

CC[C@H](C)[C@@H]1NC(=O)[C@@H](NC(=O)[C@H](CCC(N)=O)NC(=O)[C@@H]2CCCN2C(=O)[C@H](Cc2c[nH]c3ccccc23)NC(=O)[C@H](CCCNC(=N)N)NC(=O)COCCOCCNC(=S)Nc2ccc3c(c2)C(=O)OC32c3ccc(O)cc3Oc3cc(O)ccc32)CNC(=O)CSCc2cccc(c2)CSCC(=O)NC[C@H](C(=O)N[C@@H](Cc2c[nH]cn2)C(=O)N[C@H](C(=O)N[C@@H](CCCNC(=N)N)C(=O)N[C@@H](CCCNC(=N)N)C(=O)N[C@H](C(=O)N[C@@H](Cc2c[nH]c3ccccc23)C(=O)N[C@@H](CCCNC(=N)N)C(N)=O)C(C)C)C(C)C)NC(=O)[C@H](CC(=O)O)NC(=O)[C@H](CC(C)C)NC1=O [compound 67]
inhibition of β-catenin mediated transcription (TOPFlash) [1]: strong inhibition | effects on DLD-1 cells over a time course of 24–96 h (DLD-1 cells [2]): significant effects | effect on viability of DLD-1 cells (DLD-1 cells [3]): did not affect the viability | effect on growth of HEK293 control cells (HEK293 cells): little effects | EC50 (DLD-1 cells [4]; 5 days, 1000 cells per well, n = 3, read-out: EC50, inhibition of DLD-1 cell growth): 9800 ± 2000 nM

CC[C@H](C)[C@@H]1NC(=O)[C@@](C)(NC(=O)[C@H](CCC(N)=O)NC(=O)[C@@H]2CCCN2C(=O)[C@H](Cc2c[nH]c3ccccc23)NC(=O)[C@H](CCCNC(=N)N)NC(=O)COCCOCCNC(=S)Nc2ccc3c(c2)C(=O)OC32c3ccc(O)cc3Oc3cc(O)ccc32)CCC/C=C\CCC[C@@](C)(C(=O)N[C@@H](Cc2c[nH]cn2)C(=O)N[C@H](C(=O)N[C@@H](CCCNC(=N)N)C(=O)N[C@@H](CCCNC(=N)N)C(=O)N[C@H](C(=O)N[C@@H](Cc2c[nH]c3ccccc23)C(=O)N[C@@H](CCCNC(=N)N)C(N)=O)C(C)C)C(C)C)NC(=O)[C@H](CC(=O)O)NC(=O)[C@H](CC(C)C)NC1=O [compound 68, reference compound]
concentration at which significant growth inhibition was first displayed (DLD-1 cells [4]; DLD-1, 5 days, highest tested 16 µM): 16 µM

CC[C@H](C)[C@@H]1NC(=O)[C@@H](NC(=O)[C@H](CC(=O)O)NC(=O)[C@H](C)NC(=O)[C@H](CC(C)C)NC(=O)[C@H](CCC(N)=O)NC(=O)[C@H](CCCCN)NC(=O)[C@H](C)NC(=O)[C@H](Cc2ccc(O)cc2)NC(=O)[C@H](CCCCN)NC(=O)[C@H](CCCCN)NC(=O)CCNC(=S)Nc2ccc3c(c2)C(=O)OC32c3ccc(O)cc3Oc3cc(O)ccc32)CNC(=O)CSCc2cccc(c2)CSCC(=O)NC[C@@H](C(=O)N[C@@H](C)C(=O)N[C@H](C(=O)N[C@@H](CCC(=O)O)C(N)=O)[C@@H](C)O)NC(=O)[C@H](CCCCN)NC(=O)[C@H]([C@@H](C)CC)NC1=O [compound 75] ({FITC-βAla}-KKYAKQLAD[Dap]IIK[Dap]ATE-NH2; linker 10-14 via Benzene(1,3-(CH2SCH2CO)2))
mean intensity versus RCM stapled STAD 78 (HeLa cells): 2.92 ± 0.08 fold

CC(=O)N[C@@H](CCC(N)=O)C(=O)N[C@@H](CO)C(=O)N[C@@H](CCC(N)=O)C(=O)N[C@@H](CCC(N)=O)C(=O)N[C@H](C(=O)N[C@@H](Cc1ccccc1)C(=O)N[C@H]1CNC(=O)CSCc2ccc(cc2)CSCC(=O)NC[C@@H](C(=O)N[C@@H](CCC(N)=O)C(=O)N[C@@H](CC(N)=O)C(N)=O)NC(=O)[C@H](CC(C)C)NC(=O)[C@H](CC(C)C)NC(=O)[C@H](CCCNC(=N)N)NC(=O)[C@H](Cc2c[nH]c3ccccc23)NC(=O)[C@H](CC(C)C)NC(=O)[C@H](CC(N)=O)NC1=O)[C@@H](C)O [compound 82]
EC50 [5]: 660 ± 190 nM | helicity (circular dichroism): 61%

CC(=O)N[C@@H](CCC(N)=O)C(=O)N[C@@H](CO)C(=O)N[C@@H](CCC(N)=O)C(=O)N[C@@H](CCC(N)=O)C(=O)N[C@H](C(=O)N[C@@H](Cc1ccccc1)C(=O)N[C@H]1CNC(=O)CSCc2ccc(cc2)CSCC(=O)NC[C@H](C(=O)N[C@@H](CCC(N)=O)C(=O)N[C@@H](CC(N)=O)C(N)=O)NC(=O)[C@H](CC(C)C)NC(=O)[C@H](CC(C)C)NC(=O)[C@H](CCCNC(=N)N)NC(=O)[C@H](Cc2c[nH]c3ccccc23)NC(=O)[C@H](CC(C)C)NC(=O)[C@H](CC(N)=O)NC1=O)[C@@H](C)O [compound 87]
Helicity (%) [6]: 64% | EC50 [5]: 710 ± 180 nM | helicity (circular dichroism): 64%
